Drawing on PubChem BioAssay (NCI), this text covers GI50 and TGI for 28 compounds.

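Protocol summary: plate cells (96-well), add compound at 5 concentrations, incubate 48 h, interpolate endpoints linearly. Here, GI50 denotes the concentration required for 50% inhibition of growth. At the TGI there is no net growth.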

Holding throughout (experiment): inhibition of tumour cell growth, NCI panel, 48 h
In assay [1] the test system is HCC-2998 colon.
Assay [2] deals with MOLT-4 leukemia.
For assay [3], the system named is NCI-H23 lung.
In assay [4] the test system is NCI-H460 lung.
Assay [5] relates to OVCAR-8 ovarian.
The subject of assay [6] is SK-MEL-5 melanoma.
Assay [7] has as its system SK-OV-3 ovarian.
Assay [8] has as its system SNB-19 CNS.
Assay [9] has as its system SW-620 colon.

With `CCC[CH2][Sn]1([CH2]CCC)[O]CC(Cc2ccccc2)[O]1` (centres undefined), the GI50 is 7.25 µM in [1]; 1.64 µM in assay [2]; 1.53 µM in assay [3]; 11 µM in assay [4]; 2.61 µM in assay [5]; 3.09 µM in assay [6]. Further, the GI50 in assay [7] is 12 µM; in assay [8], 3.45 µM; in assay [9], 1.63 µM. For the same compound, the TGI in [1] worked out at 20.2 µM; in [2] it was 6.07 µM; in assay [3], 4.05 µM; in assay [4], 23.4 µM; in [5], 6.59 µM; in [6], 14.2 µM. Moreover, the results for the TGI in assay [7], in [8] and in [9] were 25.1 µM, 11.7 µM and 3.48 µM, respectively.

`COC(=O)/C=C1/CCC(C(=O)OC)N1` (centres undefined): the TGI in assay [1], in assay [2], in [3], in assay [4], in assay [5] and in [6] was above 100 µM each time. The TGI in assay [7], in assay [8] and in [9] was above 100 µM each time.

With `COC(=O)N(C(=O)OC)C(C(=O)O)C(C)C` (centres undefined), the TGI in assay [1], in assay [3], in assay [4], in assay [5], in assay [8] and in assay [9] was above 100 µM throughout.

For `CCCCCC[N+](C)(C)Cc1ccc(C[N+](C)(C)CCCCCC)cc1`, the TGI in assay [1] worked out at 27.9 µM; in assay [4], 6.03 µM; in assay [5] it was 7.37 µM; in assay [6], 28.5 µM; in assay [7], 33.4 µM; in assay [8], 67.4 µM. The TGI in [9] came to 26.6 µM.

With `CN(C)CC(C)(C)C(=O)/C=C/c1ccc(/C=C/C(=O)C(C)(C)CN(C)C)cc1`, the TGI was determined as 3.04 µM in assay [1]; 3.93 µM in [3]; 13.9 µM in assay [4]; 6.71 µM in [5]; 5.13 µM in assay [6]; 8.12 µM in assay [7]. Also, the TGI in assay [8] was found to be 4.75 µM; in assay [9], 2.17 µM.

Take `O=C(O)CCCCCCC[C@H]1S[C@H]1CCCCCCO`: the TGI in assay [1], in assay [2], in assay [3], in assay [5], in [6] and in assay [7] was above 100 µM each time. Besides, the TGI in assay [8] was above 100 µM.

On to `[Cl-].[O-]/N=C(\c1ccccc1)c1ccccn1.[O-]/N=C(\c1ccccc1)c1ccccn1.[O-]/N=C(\c1ccccc1)c1ccccn1.[Sm+3]`, for which the GI50 was 25.7 µM in assay [1]; 29.1 µM in assay [2]; 32.8 µM in [3]; 27.3 µM in assay [4]; 29.8 µM in assay [5]; 20.5 µM in assay [6]. Also, the results for the GI50 in assay [7], in assay [8] and in [9] were 32.6 µM, 36 µM and 34.5 µM, respectively. Besides, the TGI was above 100 µM in [1]; above 100 µM in [2]; 87.1 µM in assay [3]; above 100 µM in [4]; above 100 µM in assay [5]; 47 µM in [6]. For the same compound, the TGI in assay [7], in assay [8] and in assay [9] was above 100 µM in each case.

In the case of `Cc1ccc(SC(CCC(Sc2ccc(C)cc2)Sc2ccc(C)cc2)Sc2ccc(C)cc2)cc1`, the TGI in assay [2], in assay [3], in [4], in [5], in [6] and in assay [7] was above 100 µM throughout. Also, the TGI in assay [8] and in [9] was above 100 µM throughout.

`Cc1nc(Nc2ccc(Cl)cc2)sc1C(=O)NNc1ccc([N+](=O)[O-])cc1[N+](=O)[O-]`: the TGI in assay [1] came to 30 µM; in [2] it was 46.7 µM; in [3], 35.1 µM; in assay [4], 34.7 µM; in assay [5], 46.5 µM; in [6], 30.2 µM. Also, the figures for the TGI in assay [7], in assay [8] and in assay [9] were 52.3 µM, 30.4 µM and 43.5 µM, respectively.

In the case of `c1cc(N(CCn2cccn2)CCn2cccn2)cc(N(CCn2cccn2)CCn2cccn2)c1`, the TGI in assay [1], in [2], in assay [4], in assay [5], in assay [6] and in assay [7] was above 100 µM in each case. The TGI in assay [8] and in assay [9] was above 100 µM throughout.

In the case of `CCOC(=O)C1N(S(=O)(=O)c2ccc(C)cc2)CCC12c1ccccc1N(C(C)=O)C2c1ccc(OC)c(OC)c1` (centres undefined), the TGI in assay [1], in [3], in assay [4], in assay [5], in [6] and in assay [7] was above 100 µM each time. The TGI in [8] and in assay [9] was above 100 µM throughout.

For `O=C1c2ccccc2C(Br)(Br)c2ccccc21`, the TGI in assay [1] was above 31.6 µM; in assay [2], above 31.6 µM; in assay [3], above 100 µM; in [4], above 31.6 µM; in assay [5], above 100 µM; in [6], above 31.6 µM. Besides, the TGI in assay [7], in [8] and in assay [9] was above 31.6 µM throughout.

Regarding `CC(=O)[CH-]C(C)=O.CC(=O)[CH-]C(C)=O.[CH2-]CCC.[CH2-]CCC.[Sn+4]`, the GI50 in assay [2] was 0.37 µM; in assay [3] it was 0.315 µM; in assay [4] it was 1.39 µM; in assay [5], 0.788 µM; in [6], 0.848 µM; in assay [7], 1.69 µM. Also, the GI50 is 0.663 µM in assay [8] and 0.148 µM in assay [9]. Besides, the TGI in [2] was above 100 µM; in assay [3], 1.39 µM; in assay [4], 2.9 µM; in assay [5] it was 2.05 µM; in [6], 2.15 µM; in [7], 3.09 µM. Moreover, the figures for the TGI in [8] and in assay [9] were 1.97 µM and 0.375 µM, respectively.

Take `CC(=O)[O][Ga]([Cl])[O]C(C)=O`: the GI50 in assay [2], in assay [3], in assay [4], in [5], in assay [6] and in assay [7] was above 100 µM each time. The GI50 in assay [8] and in assay [9] was above 100 µM in each case. Further, the TGI in assay [2], in [3], in assay [4], in assay [5], in assay [6] and in assay [7] was above 100 µM throughout. Moreover, the TGI in [8] and in [9] was above 100 µM each time.

For the compound `CC(C)=CC(=O)C/C(=N\NC(N)=S)C(=O)Nc1ccc(Cl)cc1`, the TGI in assay [1], in assay [2], in [3], in [4], in assay [5] and in [6] was above 100 µM each time. Further, the TGI in [7], in assay [8] and in assay [9] was above 100 µM each time.

For the compound `COc1ccc(OC)c(/C(C)=N/NC(N)=S)c1`, the TGI in assay [1], in assay [2], in assay [3], in assay [4], in assay [5] and in [6] was above 100 µM each time. The TGI in assay [7] and in assay [9] was above 100 µM throughout.

`C[N-]c1nnnn1C.[Au+].c1ccc([PH+](c2ccccc2)c2ccccc2)cc1`: the GI50 in assay [1] was 4.06 µM; in assay [2], 1.62 µM; in assay [3], 1.97 µM; in assay [4], 8.54 µM; in [5], 3.18 µM; in assay [6], 1.59 µM. Further, the GI50 in assay [7] is 13 µM; in assay [8], 2.25 µM. Further, the TGI in [1] was found to be 9.23 µM; in [2], 4.22 µM; in [3], 4.48 µM; in assay [4], 52.7 µM; in [5] it was 14.2 µM; in assay [6] it was 3.65 µM. Further, the TGI in [7] is 26.6 µM; in [8], 6.18 µM.

Turning to `CN(C)CC(C)(C)/C(=N\Nc1ccccc1)c1ccccc1`, the TGI in assay [2] was above 100 µM; in [3], above 100 µM; in assay [4], above 100 µM; in assay [5] it was above 100 µM; in assay [6], above 100 µM; in assay [7], 73.3 µM. The TGI in [8] and in assay [9] was above 100 µM in each case.

On to `O=c1nc(/C=C/c2ccccc2Cl)cc2n1CCN2CCO`, for which the TGI in assay [2], in [4], in assay [5], in [7] and in assay [9] was above 100 µM in each case.

For `COc1ccc(Nc2nc3ccc(C(F)(F)F)cc3nc2-c2ccccc2)cc1OC`, the TGI in assay [1] is 41.3 µM; in assay [2] it was above 100 µM; in assay [3] it was above 100 µM; in [4], 37.1 µM; in assay [5], above 100 µM; in assay [6] it was above 100 µM. Further, the TGI in assay [7] and in [9] was above 100 µM throughout.

On to `Cc1cc2c(ccc3c(C)cc(=O)oc32)o1`, for which the TGI in [1], in assay [2], in assay [3], in assay [4], in [5] and in assay [6] was above 100 µM throughout. In addition, the TGI in [7], in [8] and in [9] was above 100 µM throughout.

In the case of `COc1ccc(S(=O)(=O)Nc2ccccc2C(=O)O)cc1`, the TGI in [1], in assay [2], in assay [3], in assay [4], in [5] and in [6] was above 100 µM in each case. Besides, the TGI in [7], in [8] and in [9] was above 100 µM in each case.

Turning to `COc1ccc2c(CN3CCCCC3CO)cc3cc(OC)c(OC)cc3c2c1` (centres undefined), the TGI in [1] was determined as 21 µM; in assay [2], 14.9 µM; in [3], 16.9 µM; in assay [5], 19.9 µM; in [6], 20.6 µM; in assay [7], 70.2 µM. Moreover, the TGI in [8] was determined as 16.5 µM; in assay [9], 15.7 µM.

Regarding `C=C(COC(C)=O)CC(OC(C)=O)c1ccccc1` (centres undefined), the TGI in [1], in [2], in assay [3], in [4], in assay [5] and in [6] was above 100 µM throughout. For the same compound, the TGI in [7], in [8] and in assay [9] was above 100 µM in each case.

For the compound `CC(C)CC(NC(=O)c1cccc(O)c1O)C(=O)NCc1cc(CNC(=O)C(CC(C)C)NC(=O)c2cccc(O)c2O)cc(CNC(=O)C(CC(C)C)NC(=O)c2cccc(O)c2O)c1` (centres undefined), the TGI in assay [1] is 20.6 µM; in assay [2], 37.9 µM; in [3], 36.1 µM; in assay [4] it was above 100 µM; in [5] it was above 100 µM; in assay [6], 30.4 µM. Moreover, the TGI in assay [7] is 35.5 µM; in assay [8] it was 47.3 µM; in assay [9], 61.8 µM.

Consider `Cc1ccc(NC(=O)C2C(=O)N(c3ccc(C)cc3)C(=O)/C2=N\NC(N)=S)cc1` (centres undefined), for which the TGI in assay [1], in assay [2], in assay [3], in assay [4], in assay [5] and in assay [6] was above 100 µM each time. In addition, the TGI in [7], in assay [8] and in [9] was above 100 µM each time.

For the compound `COc1ccc(OC)c2c1CC(C(=O)O)(C(=O)O)CC2=O`, the TGI in assay [1], in assay [2], in assay [3], in assay [6], in assay [7] and in assay [8] was above 100 µM each time. In [9], this compound showed a TGI above 100 µM.

Regarding `COc1ccc2c(c1)N1CCc3cc(OC)c(OC)cc3C1C2` (centres undefined), the TGI in assay [1], in assay [2], in assay [3], in assay [4], in [5] and in [7] was above 100 µM in each case. Further, the TGI in assay [8] and in assay [9] was above 100 µM in each case.
